# Test results reported in US20090264528A1, “SERINE PALMITOYLCOA TRANSFERASE (SPT) INHIBITION BY MYRIOCIN OR GENETIC DEFICIENCY DECREASES CHOLESTEROL ABSORPTION” (The Research Foundation of State University of New York, priority 2008, published 2009).
# Experiments:
# [1] = system: ABCA1; experiment: Western blot of small intestine homogenates, ABCA1; type: in vivo, mouse; conditions: SPT-deficient small intestines (myriocin-treated, FIG. 6A) compared with controls
# Procedure: (§1) FIG. 8 depicts that SPT deficiency decreased NPC1L1 and ABCA1, and increased ABCG5 in mouse small intestine. Tissue homogenates were prepared as described in Methods, and equal amounts of homogenates from each mouse were pooled in each group (n=5). A total of 50 microg pooled sample from each group was immunoblotted with antibodies against NPC1L1, ABCA1, and ABCG5. Immunoblots of beta (β)-actin were used as a loading control.
# (§2) Preparation and Western blot analysis of small intestine homogenates: A total of 50-100 mg of small intestine sample was homogenized and lysed proteins were immunoblotted, as previously described, (3) with a polyclonal rabbit antihuman NPC1L1 antiserum 69B, a polyclonal rabbit antimouse ABCG5 antiserum, a polyclonal antimouse ABCA1 antibody, and a monoclonal mouse anti-(beta)β-actin antibody.
# (§3) Next, Western blot measurements of NPC1L1 and ABCG5/G8 were completed, where the measurement were located in apical membranes of the enterocytes. […] Also, ABCA1 was measured, which is located in the basal membranes of the enterocytes and is involved in cholesterol secretion.
# [2] = system: ABCG5; experiment: Western blot of small intestine homogenates, ABCG5; type: in vivo, mouse; conditions: WT and apoE KO mice, compared with nontreated animals
# Procedure: as §1, §2, §3
# [3] = system: cholesterol absorption; experiment: Cholesterol absorption, fecal dual-isotope ratio method; type: in vivo, mouse; conditions: single gavage, feces 24 hours
# Procedure: FIGS. 5A-I depict several graphs that illustrate that SPT deficient mice absorbed less cholesterol. Mice (n=6, 10-12 weeks old) were fasted for 5 hours and gavaged with 0.1 microCi [^14C]cholesterol and 0.2 microCi [^3H]sitostanol with 0.5 mg unlabeled cholesterol dissolved in 15 microl of olive oil. Feces were collected after 24 hours and lipids were extracted for counting (FIGS. 5A, 5D, and 5G, cholesterol absorption, WT vs WT/myriocin; apoE KO vs apoE KO/myriocin; WT vs Sptlc1^+/−, respectively). Blood was collected during the 24 hour period (Panels B, E, and H, [^14C]cholesterol in blood, WT vs WT/myriocin; apoE KO vs apoE KO/myriocin; WT vs Sptlc1^+/−, respectively). To test specificity, the mice were gavaged with 0.2 microCi [^3H]triolein together with 0.5 mg/ml cold cholesterol. Blood was collected during the 24 hour period (FIGS. 5C, 5F, and 5I, [^3H] glycerolipids in blood, WT versus WT/myriocin; apoE KO versus apoE KO/myriocin; WT versus Sptlc1^+/−, respectively). […]
# Cholesterol absorption studies: A classical fecal dual-isotope ratio method was used for the cholesterol absorption study. […] The cholesterol absorption ratio was calculated as: % absorption={1−[fecal(^14C/^3H)]/administered(^14C/^3H)}×100. In some cases, mice were sacrificed, plasma collected, and radioactivity counted. […] Each of these, as well as a part of the liver, were digested and radioactivity counted individually. […]
# [4] = system: apical membrane SM of small intestine segments; experiment: In situ lysenin treatment and cell mortality measurement (WST-1); type: cell-based, mouse; conditions: jejunum segments from myriocin-treated WT mice, 5 microg/ml lysenin, 30 minutes
# Procedure: FIGS. 7A-B depict several graphs that illustrate that SPT deficiency decreased SM levels on the apical surface of mouse small intestine. Small intestines were turned inside-out and cut into 0.5 cm of segments from jejunum. The segments were then bathed in 0.5 ml of oxygenated DMEM containing 5% glutamine with 5 microg/ml lysenin or without it as control, at 37 degrees C. for 30 minutes. Then 0.05 ml of WST-1 cell proliferation reagent were added and continuously incubated at 37 degrees C. for 15 minutes. After incubation, solutions were transferred to an Eppendorf tube and quick-spun at maximum speed to pellet cell debris. Supernatants were read OD at 450 nm, a reading for viable cells. Background reading was the WST-1 reagent with no cell treatment. […]
# In situ lysenin treatment and cell mortality measurement: Overnight-fasted mice were anesthetized and small intestines were isolated from WT animals with or without myriocin treatment, as well as sptlc1 KO and control mice. […] Supernatant was then measured OD at 450 nm, a reading for viable cells (WST-1 reagent with no cell incubation being the background reading). […]
# Second, lysenin, a SM-specific cytotoxin, was used to measure apical membrane SM levels, since lysenin can recognize SM only when it forms aggregates or microdomains in the plasma membranes. […] Cell viability in tissue segments was measured by adding WST-1 cell proliferation reagent.
compound,measurement,setting,value
"CCCCCCC(=O)CCCCCC/C=C/C[C@@H](O)[C@H](O)[C@@](N)(CO)C(=O)O [Myriocin, myriocin]",ABCA1 protein in small intestine,[1],decreased
same,ABCG5 protein mass in small intestine,[2],increased
same,reduction in cholesterol absorption compared with controls,"[3]; myriocin-treated WT mice, P<0.01",36%
same,reduction in cholesterol absorption compared with controls,"[3]; myriocin-treated apoE KO mice, P<0.001",50%
same,sensitivity to lysenin-mediated cytolysis vs controls,[4],significantly less sensitivity
